We go through two compounds from PMC8867545 (ACS Omega, 2022).

Assay [1] deals with β-glucosidase (β-Glcase). Briefly: UV-vis absorption at […] nm, Lineweaver-Burk. As to conditions: 1x PBS pH 5.33, room temperature, 100 μg/mL enzyme, 10-500 μM substrate. The class given is biochemical, Prunus dulcis.
For assay [2], the system named is β-glucosidase (β-Glcase). As to the kind of experiment: UV-vis absorption at […] nm, Lineweaver-Burk. The assay is classed as biochemical, Prunus dulcis. The conditions noted are these: 1x PBS pH 5.33, room temperature, 100 μg/mL enzyme, 5-200 μM substrate.

In general, Km refers to the concentration of substrate that gives half-maximal velocity. Consider `N#Cc1cccnc1S[C@@H]1O[C@H](CO)[C@@H](O)[C@H](O)[C@H]1O` [Glc-o-MPN], for which the Km in assay [1] is 228 µM.

Turning to `N#Cc1ccc(S[C@@H]2O[C@H](CO)[C@@H](O)[C@H](O)[C@H]2O)nc1` [Glc-p-MPN], in assay [2], the Michaelis-Menten constant (Km) amounted to 162 µM.
